Measured values reported in PMC5540273, “Progress towards a public chemogenomic set for protein kinases and a call for contributions” (PLoS ONE, 2017).

How the values were obtained:
Test in all cases: KINOMEscan competition binding
[1] = biological target: CDK3 (Homo sapiens, UniProt Q00526); conditions: read-out: %Inh CDK3
[2] = biological target: CAMK1B (Homo sapiens, UniProt Q6P2M8); conditions: read-out: %Inh CAMK1B
[3] = biological target: FYN (Homo sapiens, UniProt P06241); conditions: read-out: %Inh FYN
[4] = biological target: HIPK3 (Homo sapiens, UniProt Q9H422); conditions: read-out: %Inh HIPK3
[5] = biological target: FGFR3 (Homo sapiens, UniProt P22607); conditions: read-out: %Inh FGFR3
[6] = biological target: DDR1 (Homo sapiens, UniProt Q08345); conditions: read-out: %Inh DDR1
[7] = biological target: CDK9 (Homo sapiens, UniProt P50750); conditions: read-out: %Inh CDK9
[8] = biological target: T1, EPHB4 (Homo sapiens, UniProt P54760); conditions: read-out: %Inh EPHB4
T1 sequence (P54760 16-987): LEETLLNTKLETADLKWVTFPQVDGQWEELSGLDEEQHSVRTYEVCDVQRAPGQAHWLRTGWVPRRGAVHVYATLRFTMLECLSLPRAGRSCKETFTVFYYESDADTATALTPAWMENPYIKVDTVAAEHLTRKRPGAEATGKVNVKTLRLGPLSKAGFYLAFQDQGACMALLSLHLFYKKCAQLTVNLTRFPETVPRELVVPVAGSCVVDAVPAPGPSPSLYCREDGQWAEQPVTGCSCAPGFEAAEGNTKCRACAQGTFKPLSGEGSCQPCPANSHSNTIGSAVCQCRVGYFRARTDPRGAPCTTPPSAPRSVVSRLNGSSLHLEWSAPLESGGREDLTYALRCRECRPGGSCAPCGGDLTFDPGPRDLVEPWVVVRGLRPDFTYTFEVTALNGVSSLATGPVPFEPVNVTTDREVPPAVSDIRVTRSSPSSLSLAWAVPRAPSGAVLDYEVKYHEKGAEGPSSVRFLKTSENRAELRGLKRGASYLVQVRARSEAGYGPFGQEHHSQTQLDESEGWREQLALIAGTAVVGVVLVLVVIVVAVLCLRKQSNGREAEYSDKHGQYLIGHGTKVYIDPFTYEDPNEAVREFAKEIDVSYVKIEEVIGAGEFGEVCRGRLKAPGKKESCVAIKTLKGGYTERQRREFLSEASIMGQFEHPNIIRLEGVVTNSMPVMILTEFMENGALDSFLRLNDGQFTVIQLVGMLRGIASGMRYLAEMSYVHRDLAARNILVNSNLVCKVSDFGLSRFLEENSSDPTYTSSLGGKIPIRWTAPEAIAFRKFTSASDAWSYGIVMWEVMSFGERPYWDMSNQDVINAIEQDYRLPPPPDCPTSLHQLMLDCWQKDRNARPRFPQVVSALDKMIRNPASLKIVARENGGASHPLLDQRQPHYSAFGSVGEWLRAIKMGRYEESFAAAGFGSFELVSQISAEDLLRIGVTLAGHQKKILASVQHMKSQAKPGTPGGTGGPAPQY

[9] = biological target: EPHA5 (Homo sapiens, UniProt P54756); conditions: read-out: %Inh EPHA5
[10] = biological target: CSK (Homo sapiens, UniProt P41240); conditions: read-out: %Inh CSK
[11] = biological target: T2, IRAK3 (Homo sapiens, UniProt Q9Y616); conditions: read-out: %Inh IRAK3
T2 sequence (Q9Y616 1-596): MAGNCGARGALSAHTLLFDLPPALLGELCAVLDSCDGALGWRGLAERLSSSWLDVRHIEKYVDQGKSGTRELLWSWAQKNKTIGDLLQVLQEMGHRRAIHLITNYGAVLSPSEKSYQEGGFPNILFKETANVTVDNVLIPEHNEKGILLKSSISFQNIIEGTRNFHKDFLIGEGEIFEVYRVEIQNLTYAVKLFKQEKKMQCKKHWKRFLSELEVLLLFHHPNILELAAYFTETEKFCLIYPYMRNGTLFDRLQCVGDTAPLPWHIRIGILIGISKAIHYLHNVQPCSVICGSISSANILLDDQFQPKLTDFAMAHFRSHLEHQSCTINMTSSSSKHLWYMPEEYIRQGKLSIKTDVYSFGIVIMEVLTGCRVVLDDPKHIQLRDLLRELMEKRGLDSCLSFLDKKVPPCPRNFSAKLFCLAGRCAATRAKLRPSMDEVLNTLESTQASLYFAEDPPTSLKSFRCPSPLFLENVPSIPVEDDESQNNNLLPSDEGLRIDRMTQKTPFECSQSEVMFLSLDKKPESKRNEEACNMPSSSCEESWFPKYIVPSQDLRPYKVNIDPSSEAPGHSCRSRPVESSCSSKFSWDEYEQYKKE

[12] = biological target: BRK (Homo sapiens, UniProt Q13882); conditions: read-out: %Inh BRK
[13] = biological target: EIF2AK1 (Homo sapiens, UniProt Q9BQI3); conditions: read-out: %Inh EIF2AK1
Chain of EIF2AK1 (Q9BQI3 whole entry): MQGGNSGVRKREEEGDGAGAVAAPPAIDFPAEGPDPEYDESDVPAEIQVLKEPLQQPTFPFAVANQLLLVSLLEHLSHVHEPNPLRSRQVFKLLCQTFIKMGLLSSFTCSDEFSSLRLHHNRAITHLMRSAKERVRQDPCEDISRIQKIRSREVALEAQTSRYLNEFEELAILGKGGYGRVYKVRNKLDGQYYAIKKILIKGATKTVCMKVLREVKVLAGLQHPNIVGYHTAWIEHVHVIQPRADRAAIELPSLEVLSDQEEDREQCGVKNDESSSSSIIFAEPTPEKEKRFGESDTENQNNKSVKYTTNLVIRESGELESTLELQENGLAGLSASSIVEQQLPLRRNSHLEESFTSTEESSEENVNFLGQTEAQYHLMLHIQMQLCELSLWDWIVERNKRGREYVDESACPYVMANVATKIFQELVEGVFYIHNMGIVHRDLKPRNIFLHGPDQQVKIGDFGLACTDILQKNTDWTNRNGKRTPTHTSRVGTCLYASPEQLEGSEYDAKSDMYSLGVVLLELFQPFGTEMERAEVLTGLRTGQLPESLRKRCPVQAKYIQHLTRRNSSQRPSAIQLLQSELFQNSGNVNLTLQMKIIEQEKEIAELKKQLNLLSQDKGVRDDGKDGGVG

Chain of EPHA5 (P54756 25-1037): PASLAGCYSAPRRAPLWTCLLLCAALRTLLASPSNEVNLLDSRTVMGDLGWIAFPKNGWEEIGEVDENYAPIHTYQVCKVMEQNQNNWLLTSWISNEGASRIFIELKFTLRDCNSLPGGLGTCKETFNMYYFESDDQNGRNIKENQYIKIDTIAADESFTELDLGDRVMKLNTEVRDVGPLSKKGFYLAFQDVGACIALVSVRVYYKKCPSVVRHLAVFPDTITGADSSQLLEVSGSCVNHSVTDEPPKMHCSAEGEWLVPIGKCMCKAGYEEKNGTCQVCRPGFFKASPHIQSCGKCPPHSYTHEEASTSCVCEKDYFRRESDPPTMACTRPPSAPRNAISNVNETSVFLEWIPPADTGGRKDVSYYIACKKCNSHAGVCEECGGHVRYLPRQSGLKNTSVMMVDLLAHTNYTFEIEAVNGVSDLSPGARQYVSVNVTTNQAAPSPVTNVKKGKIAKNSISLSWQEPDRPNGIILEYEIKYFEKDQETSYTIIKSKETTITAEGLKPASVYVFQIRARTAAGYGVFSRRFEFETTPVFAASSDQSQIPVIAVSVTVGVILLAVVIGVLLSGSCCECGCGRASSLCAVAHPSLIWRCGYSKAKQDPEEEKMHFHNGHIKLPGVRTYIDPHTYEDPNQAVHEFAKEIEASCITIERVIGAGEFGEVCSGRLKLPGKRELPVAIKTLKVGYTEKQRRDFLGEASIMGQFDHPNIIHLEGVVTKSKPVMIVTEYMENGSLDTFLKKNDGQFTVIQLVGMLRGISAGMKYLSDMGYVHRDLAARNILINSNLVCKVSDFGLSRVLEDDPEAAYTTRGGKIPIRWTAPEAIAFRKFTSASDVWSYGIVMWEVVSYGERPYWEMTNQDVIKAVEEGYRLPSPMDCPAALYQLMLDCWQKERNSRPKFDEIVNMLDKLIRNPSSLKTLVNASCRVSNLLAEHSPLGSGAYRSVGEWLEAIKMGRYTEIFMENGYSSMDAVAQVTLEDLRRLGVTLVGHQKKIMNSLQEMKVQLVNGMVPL
Chain of BRK (Q13882 whole entry): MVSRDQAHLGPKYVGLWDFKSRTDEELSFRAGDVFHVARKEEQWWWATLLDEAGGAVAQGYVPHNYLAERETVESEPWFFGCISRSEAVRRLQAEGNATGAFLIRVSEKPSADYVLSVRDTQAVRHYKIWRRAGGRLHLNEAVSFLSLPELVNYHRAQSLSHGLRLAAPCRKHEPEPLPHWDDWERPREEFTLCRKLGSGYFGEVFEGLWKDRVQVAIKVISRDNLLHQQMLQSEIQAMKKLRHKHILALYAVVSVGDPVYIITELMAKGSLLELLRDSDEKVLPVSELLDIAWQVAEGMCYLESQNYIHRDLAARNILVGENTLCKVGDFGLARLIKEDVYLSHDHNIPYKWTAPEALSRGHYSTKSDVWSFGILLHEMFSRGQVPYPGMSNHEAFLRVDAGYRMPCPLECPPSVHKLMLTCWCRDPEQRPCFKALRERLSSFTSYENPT
Chain of FYN (P06241 whole entry): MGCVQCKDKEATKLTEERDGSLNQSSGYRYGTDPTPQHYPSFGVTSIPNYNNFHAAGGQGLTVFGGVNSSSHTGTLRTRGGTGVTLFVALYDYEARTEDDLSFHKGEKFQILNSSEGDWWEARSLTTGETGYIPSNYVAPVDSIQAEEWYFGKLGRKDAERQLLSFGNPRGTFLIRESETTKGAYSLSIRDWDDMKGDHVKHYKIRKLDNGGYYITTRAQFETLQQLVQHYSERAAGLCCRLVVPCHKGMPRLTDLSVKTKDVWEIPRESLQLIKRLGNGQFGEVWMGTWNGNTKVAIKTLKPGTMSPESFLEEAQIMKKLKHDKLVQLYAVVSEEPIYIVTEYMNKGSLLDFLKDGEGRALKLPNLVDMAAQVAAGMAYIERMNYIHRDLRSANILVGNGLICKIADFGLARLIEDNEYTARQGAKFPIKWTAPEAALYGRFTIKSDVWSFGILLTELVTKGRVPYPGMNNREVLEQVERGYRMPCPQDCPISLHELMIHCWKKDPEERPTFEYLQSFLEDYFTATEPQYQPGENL
Chain of CSK (P41240 whole entry): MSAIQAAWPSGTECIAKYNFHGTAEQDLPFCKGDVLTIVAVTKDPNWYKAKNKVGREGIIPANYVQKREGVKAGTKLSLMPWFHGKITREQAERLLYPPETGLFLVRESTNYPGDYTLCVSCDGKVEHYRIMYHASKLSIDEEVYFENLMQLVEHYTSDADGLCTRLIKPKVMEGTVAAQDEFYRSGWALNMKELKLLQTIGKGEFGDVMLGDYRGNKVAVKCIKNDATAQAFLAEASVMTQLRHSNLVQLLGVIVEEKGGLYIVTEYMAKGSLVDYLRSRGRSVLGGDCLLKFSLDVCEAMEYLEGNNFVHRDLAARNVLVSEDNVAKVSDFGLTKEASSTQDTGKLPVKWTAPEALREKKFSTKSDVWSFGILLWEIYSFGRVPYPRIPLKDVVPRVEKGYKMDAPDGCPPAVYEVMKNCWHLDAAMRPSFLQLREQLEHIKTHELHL
Chain of DDR1 (Q08345 19-913): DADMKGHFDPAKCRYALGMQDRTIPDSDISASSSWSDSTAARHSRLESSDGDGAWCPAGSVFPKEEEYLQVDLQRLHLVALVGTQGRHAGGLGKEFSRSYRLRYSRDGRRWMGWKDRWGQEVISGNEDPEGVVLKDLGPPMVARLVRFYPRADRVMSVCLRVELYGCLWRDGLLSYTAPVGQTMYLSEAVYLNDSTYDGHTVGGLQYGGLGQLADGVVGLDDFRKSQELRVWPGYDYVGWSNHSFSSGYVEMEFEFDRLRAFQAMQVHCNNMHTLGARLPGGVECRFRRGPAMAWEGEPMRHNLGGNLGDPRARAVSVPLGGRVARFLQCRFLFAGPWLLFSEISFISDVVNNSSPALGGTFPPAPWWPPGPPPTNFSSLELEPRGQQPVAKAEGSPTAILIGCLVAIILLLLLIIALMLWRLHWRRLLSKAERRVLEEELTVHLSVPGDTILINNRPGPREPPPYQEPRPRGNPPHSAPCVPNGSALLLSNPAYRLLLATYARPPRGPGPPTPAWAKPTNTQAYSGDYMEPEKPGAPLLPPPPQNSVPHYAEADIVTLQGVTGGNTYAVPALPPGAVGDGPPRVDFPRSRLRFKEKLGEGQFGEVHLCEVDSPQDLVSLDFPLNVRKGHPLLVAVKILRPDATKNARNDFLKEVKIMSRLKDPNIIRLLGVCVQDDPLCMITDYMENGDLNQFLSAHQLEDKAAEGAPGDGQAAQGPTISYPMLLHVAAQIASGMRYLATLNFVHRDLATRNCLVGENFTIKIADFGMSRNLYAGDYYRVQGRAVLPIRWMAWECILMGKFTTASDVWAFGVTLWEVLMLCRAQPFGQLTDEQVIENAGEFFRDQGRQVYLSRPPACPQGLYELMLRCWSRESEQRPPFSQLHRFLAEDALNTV
Chain of CAMK1B (Q6P2M8 whole entry): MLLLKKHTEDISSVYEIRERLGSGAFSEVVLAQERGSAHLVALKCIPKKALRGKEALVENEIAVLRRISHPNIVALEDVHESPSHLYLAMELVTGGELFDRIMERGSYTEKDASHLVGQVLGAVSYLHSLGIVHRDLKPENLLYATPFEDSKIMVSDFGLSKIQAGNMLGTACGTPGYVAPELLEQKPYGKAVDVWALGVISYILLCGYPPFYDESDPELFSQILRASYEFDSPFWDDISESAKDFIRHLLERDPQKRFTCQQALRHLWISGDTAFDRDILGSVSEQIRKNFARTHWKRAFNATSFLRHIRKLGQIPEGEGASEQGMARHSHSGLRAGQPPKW
Chain of CDK9 (P50750 whole entry): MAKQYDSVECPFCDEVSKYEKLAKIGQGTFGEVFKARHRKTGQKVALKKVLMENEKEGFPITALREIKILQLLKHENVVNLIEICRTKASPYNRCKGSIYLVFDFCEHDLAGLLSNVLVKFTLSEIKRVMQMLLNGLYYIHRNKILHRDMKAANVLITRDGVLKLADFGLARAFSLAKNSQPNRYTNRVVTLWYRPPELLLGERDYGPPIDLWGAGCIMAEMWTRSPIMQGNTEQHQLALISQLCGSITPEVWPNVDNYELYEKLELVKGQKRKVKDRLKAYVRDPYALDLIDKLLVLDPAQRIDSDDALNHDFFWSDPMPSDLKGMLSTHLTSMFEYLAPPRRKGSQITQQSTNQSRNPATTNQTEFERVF
Chain of CDK3 (Q00526 whole entry): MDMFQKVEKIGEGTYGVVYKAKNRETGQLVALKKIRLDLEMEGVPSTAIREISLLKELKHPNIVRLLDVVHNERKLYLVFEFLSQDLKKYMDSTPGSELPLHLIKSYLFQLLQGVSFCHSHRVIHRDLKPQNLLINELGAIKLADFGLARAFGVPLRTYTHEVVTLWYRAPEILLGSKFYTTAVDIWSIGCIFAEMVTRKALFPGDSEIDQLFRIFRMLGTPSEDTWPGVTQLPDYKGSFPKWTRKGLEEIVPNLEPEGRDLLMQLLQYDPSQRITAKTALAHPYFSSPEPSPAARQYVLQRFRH

SMILES | inhibition at 1 µM [1] [%] | inhibition at 1 µM [2] [%] | inhibition at 1 µM [3] [%] | inhibition at 1 µM [4] [%] | inhibition at 1 µM [5] [%] | inhibition at 1 µM [6] [%] | inhibition at 1 µM [7] [%] | inhibition at 1 µM [8] [%] | inhibition at 1 µM [9] [%] | inhibition at 1 µM [10] [%] | inhibition at 1 µM [11] [%] | inhibition at 1 µM [12] [%] | inhibition at 1 µM [13] [%]
COc1cccc(OC)c1C(=O)Nc1cccc(-c2nn3ccccc3c2-c2ccnc(Nc3cccc(F)c3)n2)c1 [UNC10225310A] | 0 | 0 | 22 | 0 | 0 | 99.3 | 0 | 8 | 11 | 18 | 0 | 19 | 0
Cc1ccc(NC(=O)Nc2cccc(C(F)(F)F)c2)cc1 [UNC10225187A] | 0 | 0 | 0 | 0 | 5 | 43 | 0 | 0 | 0 | 28 | 100 | 0 | 0
O=c1cc(N2CCOCC2)nc2n(Cc3cccc(Cl)c3Cl)c(C3CC3)nn12 [UNC10225469A] | 5 | 0 | 6 | 16 | 0 | 21 | 0 | 3 | 6 | 8 | 0 | 0 | 0
CS(=O)(=O)Cc1ccc(Nc2nccc(-c3c(-c4cccc(NC(=O)C5CCCCC5)c4)nn4ncccc34)n2)cc1 [UNC10225159A] | 0 | 0 | 1 | 23 | 16 | 96.6 | 0 | 0 | 0 | 10 | 3 | 2 | 22
Cn1cc(-c2cnc(N)c3c(-c4ccc5c(c4)CCN5C(=O)Cc4ccccc4)csc23)cn1 [UNC10225012A] | 1 | 0 | 25 | 7 | 49 | 97.7 | 0 | 9 | 0 | 20 | 5 | 92.2 | 7
